Laboratory results from patent US11793824B2, “Administration of nicotinamide mononucleotide in the treatment of disease” (Washington University, priority 2013, dated 2023).

Columns and labels:
[1] = system: neurospheres (NSPCs); experiment: Neurosphere proliferation, marker proteins and cell cycle under FK866; assay type: cell-based, mouse
Description: Protein extracts (15-50 μg) from mouse hippocampi or neurospheres were prepared as previously described (Yoshino et al, 2011).
Total RNA was extracted from the hippocampus using an RNeasy kit (Qiagen) and reverse-transcribed into cDNA with a High Capacity cDNA Reverse Transcription kit (Applied Biosystems). Quantitative real-time RT-PCR was conducted with the TaqMan Fast Universal PCR Master mix and appropriate TaqMan primers for each gene with the GeneAmp 7500 fast sequence detection system (Applied Biosystems). Relative expression levels were calculated for each gene by normalizing to Gapdh levels and then to a control.
FK866 (Hasmann & Schemainda, 2003) (Sigma F8557), EX527 (Peck et al, 2010) (Cayman Chemical 10009798), and AGK2 (Outeiro et al, 2007) (Sigma A8231) were dissolved in DMSO and used to inhibit Nampt, Sirt1, and Sirt2 respectively.
Neurosphere cultures and culture media were prepared as described by Dasgupta & Gutmann, 2005 and Lu & Ramanan, 2012 with the following minor modifications. Briefly, postnatal hippocampi were dissected in HibernateA (Invitrogen, A12475-01) and trypsinized at 37° C. for 7 m. Cells were mechanically dissociated by pipetting and pelleted by centrifugation (1700 rpm, 7 min). Dissociation medium (0.1% sodium bicarbonate, 15 mM HEPES, 0.5% glucose in HBSS) was used to wash the cells before they were resuspended in growth medium. Growth medium consisted of DMEM:F12 (1:1, Invitrogen 11966-025 and 21700-075, respectively), B27 (Invitrogen, 17504-044), N2 (Invitrogen, 17502-048), Pen/Strep (Invitrogen), epidermal growth factor (EGF, 20 ng/ml, Sigma, E4127), fibroblast growth factor (FGF, 10 ng/mL, R&D Systems, 233-fb), and heparin (Sigma). Cultures were maintained at 37° C. with 5% CO2, and passaged twice before use in experiments. Three to nine independent samples, each in 1 to 3 replicates, from at least two different litters, were used in all experiments. Neurospheres were cultured in the physiological glucose level of 5 mM (Dienel & Cruz, 2006), which has been previously shown to have no negative consequences on NSPC proliferation, differentiation, or death (Fu et al, 2006; Gao & Gao, 2007).
Neurospheres derived from Nampt^flox/flox mice were dissociated by trypsin digestion and seeded at similar cell densities in 24-well plates with fresh growth medium. Every 24 hours, neurospheres from triplicate wells were collected, dissociated, and counted on a hemocytometer using 0.2% trypan blue exclusion to distinguish viable cells. For analysis of neurosphere diameter, the largest neurosphere in each well was imaged (20× objective) and the diameter was calculated using ImageJ. For secondary neurosphere analysis, the total number of neurospheres in each well was counted at 7 days post-plating.
The inventors investigated how inhibition of Nampt affects neurosphere proliferation. […] To distinguish whether this decrease in cell number was due to an inhibition of proliferation or enhancement of death, the inventors analyzed the protein levels of markers of proliferation, apoptosis, and autophagy. […] Parametric analysis of gene enrichment (PAGE) was conducted based on microarray analyses. See the Methods section. […] Data are presented as mean±s.e.m. *P<0.05. **P<0.01. ***P<0.001.

[2] = Tear production, modified Schirmer's test; assay type: in vivo, mouse
Description: A 12 month-long NMN administration study using wild-type mice under a regular chow-fed condition was conducted. NMN was administered through drinking water, and two doses of NMN, 100 and 300 mg/kg body weight/day, were tested. […] To assess beneficial and possible adverse effects of NMN, a variety of physiological parameters were periodically monitored, including body weight, body temperature, food and water intake, fed and fasted blood glucose levels, fed and fasted plasma lipid panels, and glucose and insulin tolerance, in NMN-administered and control mice. Blood chemistry, blood cell counts, urine strip test, and other physiological tests including physical activity test were also checked.
In this long-term NMN administration study (See Methods; Administration of NMN through Drinking Water and Determination of NMN Stability and Toxicity), tear production was assessed in control and NMN-administered mice with modified Schirmer's test. All values are presented as mean±SEM. **p<0.01.

[3] = Contextual and cued fear conditioning tests in HFD-fed mice; assay type: in vivo, mouse
Description: Two groups of wild-type C57BL/6 mice at […] of age were fed a high fat diet (HFD) containing 42% of the total calories from fat (TD88137; Harlan Taklad). NMN at a dose of 300 mg/kg/day began to be administered through drinking water to one of the HFD-fed groups after 4 months of HFD feeding. The control group was fed a regular chow. After 8 months of HFD feeding with or without 4 months of NMN treatment, the contextual fear conditioning test, a sensitive test to examine the memory function that involves the hippocampus, was conducted for mice in these three groups.
FIG. 10 illustrates freezing responses of regular chow-fed control, HFD-fed, and HFD-fed, NMN-treated mice in contextual and cued fear conditioning tests on Day 1, Day 2 and Day3. NMN was administered at the dose of 300 mg/kg/day for 4 months. On Day 1 of the study, mice were given an auditory cue and then a mild electric foot shock, and a time of freezing was analyzed individually. On Day 2, the trained mice were placed into a training chamber with no tone cues, and their freezing responses were evaluated. […] The results were analyzed by one-way ANOVA with unweighted quadratic term. All values are presented as mean±SEM (n=17, 15, and 12 for regular chow-fed control, HFD-fed, and HFD-fed, NMN-treated mice, respectively). **P<0.01; *P<0.05.

[4] = FK866 10 nM, 48 hours, immunoblot

| SMILES | cyclins E and A and E2F1 mRNA (qRT-PCR) ([1]; FK866 10 nM, 48 hours) | levels of activated caspase 3 ([1]; FK866 10 nM, 48 hours) | levels of autophagy marker glycosylated LC3B ([1]; FK866 10 nM, 48 hours) | reduction of NSPC number ([1]; FK866 10 nM, 48 hours) | decrease of Ki67 protein expression [1, 4] | decrease of PCNA protein expression [1, 4] | proportion of NSPCs in G0/G1 (FACS) ([1]; FK866 treatment) | proportion of NSPCs in S phase (FACS) ([1]; FK866 treatment) | tear production ([2]; 300 mg/kg group) | tear production ([2]; 18 month-old mice, 100 and 300 mg/kg) | freezing responses, conditioning session and cued fear conditioning ([3]; Day 1 and Day 3, NMN 300 mg/kg/day for 4 months) | freezing responses, contextual fear conditioning test ([3]; Day 2, NMN 300 mg/kg/day for 4 months) |
| --- | --- | --- | --- | --- | --- | --- | --- | --- | --- | --- | --- | --- |
| O=C(/C=C/c1cccnc1)NCCCCC1CCN(C(=O)c2ccccc2)CC1 [FK866] | the primary cell cycle factors affected | only slightly increased | unchanged | 61% | 87% | 43% | increased the proportion of NSPCs in G0/G1 | decreased the proportion in S phase | – | – | – | – |
| NC(=O)c1ccc[n+]([C@@H]2O[C@H](COP(=O)([O-])O)[C@@H](O)[C@H]2O)c1 [NMN, nicotinamide mononucleotide] | – | – | – | – | – | – | – | – | comparable to the maximal tear production through the mouse lifespan | increased tear production in a dose-dependent manner | did not differ from those of control mice | indistinguishable from those of regular chow-fed control mice |
